Measured values from patent publication US20230028880A1, “CD38-BINDING AGENTS AND USES THEREOF” (Biohaven Therapeutics Ltd., priority 2019, published 2023).
Values joined by “and” are separate entries in the source; they are usually repeats but may differ in a detail not shown here. Equal values may be shown once. “Also recorded” adds a separate entry of the source.

Columns and labels:
Daudi cells [1] = assay: Ternary binding assay: recruitment of PE-labeled human IgG1k to Daudi cells (flow cytometry, MFI); format: cell-based; conditions: duplicate columns
Protocol: Various technologies can be utilized to assess and/or characterize recruitment of antibodies to target cells, e.g., cancer cells. One such assay is a ternary binding assay. An exemplary protocol is described herein. Compounds were diluted in DMSO (MP 191418) to 1000× the starting concentration used in the assay into a 96 well polypropylene plate (Corning 3357). They were then serially diluted in ½ log increments to generate 8-12 concentrations in DMSO (assay dependent). These DMSO stocks were then step diluted 1/100 into PBS (VWR Cat. #20012043). Step diluted compound range was then added into the polypropylene assay plate 1/10 the volume of the assay volume. Daudi (ATCC CCL-213), a non-adherent cell line, were counted and centrifuged and resuspended at a concentration of 100,000 cells per 90 ul in Flow buffer: 1% BSA (American Bio AB01088-00100); 0.5 mM EDTA (VWR 45001-122); PBS (VWR Cat. #20012043) with 11.1 ug/mL human IgG1k Phycoerythrin labeled (SouthernBiotech #0151K-09 PE). The cells were then added into the polypropylene plate with the step diluted compounds and incubated at 37° C. for 30 min. At the end of the incubation, the cells were centrifuged and washed 2× with How buffer containing 0.5% Tween 20 (BP337-500). Samples were analyzed on a BD FacsCelesta. Mean fluorescence was analyzed using Graphpad Prism and curves were fit using log(inhibitor) vs. response—Variable slope (four parameters).

[2] = system: Effector cells (ADCC reporter cells) with Daudi cells; assay: ADCC reporter assay: Daudi cells, IVIG and ADCC reporter effector cells (luciferase, RLU); format: cell-based; conditions: IVIG; for Luminescence, ADCC reporter assay: duplicate columns
Protocol: Daudi (ATCC CCL-213) cells were resuspended in Opti-MEM (Thermo Fisher Scientific #31985070), counted (Life Technologies Countless II cell counter) and plated (5,000 cells in 25 uL/well; Corning plates: 3917). Compounds w diluted in DMSO (MP 191418) to 1000× the starting concentration used in the assay into a 96 well polypropylene plate (Corning 3357). They were then serially diluted in ½ log increments to generate 8 concentrations in DMSO (assay dependent). These DMSO stocks were then step diluted 1/250 into Opti-MEM. Step diluted compound range was then added into the polypropylene assay plate 25 uL/well. The human antibody solution (Grifols IVIG Fleogogamma #61953-0005-2) was diluted to 40 ug/mL and added 25 uL/well. Effector cells (ADCC reporter cells—Promega kit: G7018) were added 37,500 in 25 uL/well. The assay was then incubated 18 h at 37° C. Following the induction period, the plate was equilibrated to 25° C. followed the addition of the luciferase substrate (75 uL/well, 1 vial in 10 mL of Bio-Glo assay buffer, Promega kit: G7018). The luminescence was measured (Biotek Synergy H1 microplate reader).

Daudi cells [3] = assay: KILR ADCC killing assay: KILR-transfected Daudi cells with purified NK cells (% dead cells); format: cell-based; conditions: for % dead cells, KILR ADCC killing assay: KILR Daudi cells with purified NK cells, duplicate columns
Description: In some embodiments, CD38-ABT ARMs bind to target cells and antibodies, e.g., human antibodies. In some embodiments, such ternary structures present antibodies to effector cells such as NK cell and bind to, e.g., CD16a receptors. […] Daudi cells were transfected with KILR reporter construct (DiscoverX #97-0002). An attenuated lentivirus was designed to deliver a Moloney Murine Leukemia Virus (MMLV) engineered to drive expression of a housekeeping gene tagged with Enhanced ProLabel (ePL) a beta-Galactosidase (beta-gal) reporter fragment. This construct was designed to remain inside cells. Death leads to the release of the KILR reporter protein into the medium. Detection reagent (DiscoverX #97-0001L) contained the complementing beta-gal reporter fragment enzyme acceptor (EA). The two components combined to generate a chemiluminescent signal.

NK cells = assay: Depletion of CD38-expressing effector cells: purified NK cells, 18 h, Zombie viability dye; format: cell-based, human; conditions: I-9 300 nM-10 nM, Daratumumab 3 ug/mL-0.1 ug/mL, IvIG 10 ug/mL, 18 h (FIG. 4)
Description: In some embodiments, provided technologies provides various advantages compared to existing CD38-based technologies, e.g., those using CD38 antibodies. […] As appreciated by those skilled in the art, various technologies can be utilized to assess depleting of CD38-expressing effector cells. In one example, NK cells were purified from frozen stock using 3×10^7 PBMC preparations ([…] technologies) using EasySep™ Human NK cell Isolation Kit […] Technologies (cat #17955) according to manufacturer's instructions. NK cells were plated at the density of 2×10^6 cells per mL of OPTIMEM media, in a 100 uL volume per well of round bottom 96 well plates. Daratumumab was added to a final concentration range of 3 ug/mL to 0.1 ug/mL. […] IvIG was used at a final concentration of 10 ug/mL. Cells were mixed by pipetting up and down and incubated for 18 h at 37° C. At the end of the incubation period, cells were centrifuged at 400 g for 5 min and re-suspended in PBS. Following this, cells were stained with 1 uM Zombie viability dye (Biolegend, catalog #423111) according to manufacturer's instructions and incubated for 15 minutes at room temperature. […] Cells were analyzed on BD FACSCelesta flow cytometer (BD Biosciences). […] Percentages of Zombie green positive NK cells were analyzed and graphed using GraphPad Prism software.

SMILES: CCCCC[C@@H]1NC(=O)[C@H](CCCNC(=N)N)NC(=O)[C@H](C)NC(=O)CSC[C@@H](C(=O)NCCOCCOCCOCCOCCOCCOCCn2nnc3c2CCC2C(CC3)C2COC(=O)N2CCC(C(=O)NCC(=O)N[C@H](CCC(=O)N[C@H](CCC(=O)N[C@H](CCC(=O)NCCCCCCCCCCCC(=O)O)C(=O)N[C@H](CCC(=O)N[C@H](CCC(=O)NCC(=O)NCC(=O)N[C@@H](CC(=O)O)C(=O)N[C@H]3CSSC[C@@H](C(=O)N[C@H](C(=O)O)[C@@H](C)O)NC(=O)[C@H](Cc4c[nH]c5ccccc45)NC(=O)[C@H](C(C)C)NC(=O)[C@H](CC(C)C)NC(=O)[C@H](CCC(=O)O)NC(=O)CNC(=O)[C@H](CC(C)C)NC(=O)[C@H](Cc4c[nH]cn4)NC(=O)[C@H](Cc4c[nH]c5ccccc45)NC(=O)[C@H](C)NC3=O)C(=O)O)C(=O)O)C(=O)O)C(=O)O)CC2)NC(=O)[C@H](CC(=O)O)NC(=O)[C@H](CCCCC)NC(=O)[C@H](Cc2ccc(-c3ccccc3)cc2)NC(=O)[C@H](CC(C)C)NC(=O)[C@H](C(C)C)NC(=O)CNC(=O)[C@H](CC(=O)O)NC(=O)[C@H](Cc2c[nH]cn2)NC(=O)[C@H](Cc2ccc(O)cc2)NC1=O (stereo partly shown) [I-9]
- MFI, recruitment of PE-labeled human IgG1k to Daudi cells (Daudi cells [1]; compound 0.03 nM): 2297 and 2037
- MFI, recruitment of PE-labeled human IgG1k to Daudi cells (Daudi cells [1]; compound 0.1 nM): 2514 and 2495
- MFI, recruitment of PE-labeled human IgG1k to Daudi cells (Daudi cells [1]; compound 0.3 nM): 2861 and 2727
- MFI, recruitment of PE-labeled human IgG1k to Daudi cells (Daudi cells [1]; compound 1 nM): 3063 and 2925
- MFI, recruitment of PE-labeled human IgG1k to Daudi cells (Daudi cells [1]; compound 3 nM): 4268 and 4210
- MFI, recruitment of PE-labeled human IgG1k to Daudi cells (Daudi cells [1]; compound 10 nM): 7133 and 6933
- MFI, recruitment of PE-labeled human IgG1k to Daudi cells (Daudi cells [1]; compound 30 nM): 10630 and 8384
- MFI, recruitment of PE-labeled human IgG1k to Daudi cells (Daudi cells [1]; compound 100 nM): 9899 and 10608
- MFI, recruitment of PE-labeled human IgG1k to Daudi cells (Daudi cells [1]; compound 300 nM): 7835 and 7873
- MFI, recruitment of PE-labeled human IgG1k to Daudi cells (Daudi cells [1]; compound 1000 nM): 4929 and 5108
- MFI, recruitment of PE-labeled human IgG1k to Daudi cells (Daudi cells [1]; compound 3000 nM): 4383 and 4301
- EC50 ([2]; ADCC reporter assay): 5.5 nM
- EC70 ([2]; ADCC reporter cells, 18 h, one set of experiment (FIG. 2)): about 0.92 nM
- Luminescence, ADCC reporter assay ([2]; compound 0.3 nM, 18 h): 18458 RLU and 20362 RLU
- Luminescence, ADCC reporter assay ([2]; compound 1 nM, 18 h): 20777 RLU and 20342 RLU
- Luminescence, ADCC reporter assay ([2]; compound 3 nM, 18 h): 24006 RLU and 24206 RLU
- Luminescence, ADCC reporter assay ([2]; compound 10 nM, 18 h): 35274 RLU and 44761 RLU
- Luminescence, ADCC reporter assay ([2]; compound 30 nM, 18 h): 55170 RLU and 59273 RLU
- Luminescence, ADCC reporter assay ([2]; compound 100 nM, 18 h): 60746 RLU and 68867 RLU
- Luminescence, ADCC reporter assay ([2]; compound 300 nM, 18 h): 55313 RLU and 76306 RLU
- Luminescence, ADCC reporter assay ([2]; compound 1000 nM, 18 h): 51790 RLU and 65856 RLU
- EC50 (Daudi cells [3]; KILR Daudi cells, purified NK cells, one set of experiments (FIG. 3)): 6.7 nM
- % dead cells, KILR ADCC killing assay (Daudi cells [3]; compound 0.3 nM): 5.1% and 5.5%
- % dead cells, KILR ADCC killing assay (Daudi cells [3]; compound 1 nM): 4.8% and 4.7%
- % dead cells, KILR ADCC killing assay (Daudi cells [3]; compound 3 nM): 5%
- % dead cells, KILR ADCC killing assay (Daudi cells [3]; compound 10 nM): 5.3% and 5.7%
- % dead cells, KILR ADCC killing assay (Daudi cells [3]; compound 30 nM): 6.1% and 6.9%
- % dead cells, KILR ADCC killing assay (Daudi cells [3]; compound 100 nM): 6.6% and 7.4%
- % dead cells, KILR ADCC killing assay (Daudi cells [3]; compound 300 nM): 7.3% and 8.1%
- % dead cells, KILR ADCC killing assay (Daudi cells [3]; compound 1000 nM): 6.8% and 6.7%
- Depletion of CD38-expressing effector cells (NK cells) (NK cells): did not deplete CD38-expressing effector cells; also recorded: do not significantly deplete effector cells
